# Columns and labels:
# Type in all cases: cell-based
# [1] = test system: VCaP cells; assay: Cytotoxicity assay (AlamarBlue, 72 hours); conditions: 72 hours treatment, concentration not given
# Method: (§1) Compound stock solutions of 10 mM were prepared with 100% DMSO and shaken for 10-15 seconds. The compound stock solutions were centrifuged at 12000 rpm (13523 rcf.) for 5 minutes and record the turbidity or precipitation state with a photo snapshot. The compound stock solutions were resuspended by shaking for 10-15 seconds, and serially diluted with 100% DMSO solution to make the compound concentration to 1000 μM, then to 100, 10, and 1 μM, and then 10-fold diluted with medium to 100, 10, 1, 0.1 μM (final 10% DMSO/medium) to complete compound test sample preparation. Compound treatment was performed by adding 10 μL of compound test sample to cells in each well of a 96-well plate (final 1% DMSO/medium).
# (§2) Cells (CWR22Rv1 cells or VCaP cells) were cultured in RPMI-1640 medium supplemented with 10% fetal bovine serum, 10,000 U/mL penicillin and 10,000 μg/mL streptomycin. Cells were cultured at 37° C. in a humidified 5% CO2 incubator.
# (§3) Cells were seeded in a 96-well plate (1×10^4 cells/well). 10 μL of the above compound test sample was added to each well of the 96-well plate on next day. After 72 hours of compound treatment, 10 μL of AlamaBlue reagent was added to each of 96 wells and incubated for 4 hours. The fluorescence value at Ex/Em=560/590 nm was read with a microplate reader, and the cytotoxicity (%) was calculated.
# (§4) According to the above method, the compounds prepared above were subjected to cytotoxicity test with CWR22RV1 cells and VCaP cells.
# [2] = test system: CWR22RV1 cells; assay: Cytotoxicity assay (AlamarBlue, 72 hours); conditions: 72 hours treatment, concentration not given
# Method: as §1, §2, §3, §4
# [3] = test system: full-length androgen receptor; assay: Western blot: degradation of full-length androgen receptor in CWR22RV1 cells; conditions: overnight
# Method: CWR22Rv1 cells were maintained in RPMI medium supplemented with 10% fetal bovine serum and 1% penicillin-streptomycin at 37° C. in a humidified environment with 5% CO2.
# CWR22Rv1 (5×10^5 cells) were seeded in each well of a 6-well plate and incubated overnight. Before compound treatment, the medium in the wells was replaced with a new medium. Cells were treated with different concentrations of compound overnight. Subsequently, cells were harvested by adding cold PBS and scraping cells. Cells were lysed according to general procedures and Western blot assays were performed to assess the ability of compounds to degrade full-length androgen receptor or androgen receptor splice variant 7. The cells or cell lysates were kept on ice at all times.
# The following reagents were used in this experiment. Phosphate buffered saline (PBS) (Hyclone, SH30028.02), fetal bovine serum (Hyclone, SH30084.23, Lot AC14563276), penicillin-streptomycin solution (Hyclone, SV30010), 0.5% Trypsin-EDTA (Gibco, 15400-054), CST Lysis Buffer (CST-9803), Halt™ Protease and Phosphatase Inhibitor (ThermoFisher, 78442), Coomassie (Bradford) Protein Assay (Coomassie (Bradford) protein assay) (ThermoFisher, 23200), androgen receptor antibody (Cell Siginaling, CST-5153S), GAPDH antibody (Cell Siginaling, CST-5174S), HRP-goat-anti-rabbit (Jackson Immuno Research, 111-035-003), skim milk, SuperSignal West Pico Maximum Sensitivity substrate (ThermoFisher, 34080).
# The compound prepared above was analyzed for its ability to degrade full-length androgen receptor and androgen receptor splice variant 7 in CWR22RV1 cells by Western blotting according to the method shown in item B.3-2 above.
# [4] = compound concentration 0.1 (unit not given)
# [5] = compound concentration 1 (unit not given)
# [6] = compound concentration 10 (unit not given)
SMILES,"Cytotoxicity, VCaP cells (cell viability %) [1]","Cytotoxicity, CWR22RV1 cells (cell viability %) [2]","Degradation ability for full-length androgen receptor (residual rate %) [3, 4]","Degradation ability for full-length androgen receptor (residual rate %) [3, 5]","Degradation ability for full-length androgen receptor (residual rate %) [3, 6]"
"O=C1CCC(N2C(=O)c3cccc(N4CCC(CN5CCN(c6ccc(C(=O)N[C@H]7CC[C@H](Oc8ccc9nnc(C(F)(F)F)n9n8)CC7)cn6)CC5)CC4)c3C2=O)C(=O)N1 (some centres unmarked) [Compound 48, 6-(4-((1-(2-(2,6-dioxopiperidin-3-yl)-1,3-dioxoisoindolin-4-yl)piperidin-4-yl)methyl)piperazin-1-yl)-N-((1r,4r)-4-((3-(trifluoromethyl)-[1,2,4]triazolo[4,3-b]pyridazin-6-yl)oxy)cyclohexyl)nicotinamide]",− (<80% : −),− (<80% : −),− (>80%; −),− (>80%; −),− (>80%; −)
"O=C1CCC(N2Cc3c(NC(=O)CCCCCCOc4ccc(C5CCN(C6=Nn7c(nnc7C(F)(F)F)CC6)CC5)cc4)cccc3C2=O)C(=O)N1 (centres unmarked) [Compound 39, N-(2-(2,6-dioxopiperidin-3-yl)-1-oxoisoindolin-4-yl)-7-(4-(1-(3-(trifluoromethyl)-7,8-dihydro-[1,2,4]triazolo[4,3-b]pyridazin-6-yl)piperidin-4-yl)phenoxy)heptanamide]",+++ (<40% : +++),+++ (<40% : +++),− (>80%; −),+ (60-80%: +),++ (40-60%: ++)
"O=C1CCC(N2C(=O)c3cccc(NCC(=O)N4CCC(N5CCC(C#Cc6ccc(C7CCN(C8=Nn9c(nnc9C(F)(F)F)CC8)CC7)cc6)CC5)CC4)c3C2=O)C(=O)N1 (centres unmarked) [Compound 43, 2-(2,6-dioxopiperidin-3-yl)-4-((2-oxo-2-(4-((4-(1-(3-(trifluoromethyl)-7,8-dihydro-[1,2,4]triazolo[4,3-b]pyridazin-6-yl)piperidin-4-yl)phenyl)ethynyl)-[1,4′-bipiperidin]-1′-yl)ethyl)amino)isoindoline-1,3-dione]",+++ (<40% : +++),+++ (<40% : +++),++ (40-60%: ++),++ (40-60%: ++),++ (40-60%: ++)
"Cc1ncsc1-c1ccc(CNC(=O)[C@@H]2C[C@H](O)CN2C(=O)[C@@H](NC(=O)COCCCCOc2ccc(C(=O)NC3C(C)(C)C(Oc4ccc5nnc(C(F)(F)F)n5n4)C3(C)C)cc2)C(C)(C)C)cc1 (some centres unmarked) [Compound 53, 1-(3,3-dimethyl-2-(2-(4-(4-(((1r,3r)-2,2,4,4-tetramethyl-3-((3-(trifluoromethyl)-[1,2,4]triazolo[4,3-b]pyridazin-6-yl)oxy)cyclobutyl)carbamoyl)phenoxy)butoxy)acetamido)butanoyl)-4-hydroxy-N-(4-(4-methylthiazol-5-yl)benzyl)pyrrolidine-2-carboxamide]",+++ (<40% : +++),+++ (<40% : +++),− (>80%; −),+++ (<40%: +++),+++ (<40%: +++)
"Cc1ncsc1-c1ccc(CNC(=O)[C@@H]2C[C@H](O)CN2C(=O)[C@@H](NC(=O)COCCOc2ccc(C3CCN(C4=Nn5c(nnc5C(F)(F)F)CC4)CC3)cc2)C(C)(C)C)cc1 [Compound 19, (2S,4S)-1-((S)-3,3-dimethyl-2-(2-(2-(4-(1-(3-(trifluoromethyl)-7,8-dihydro-[1,2,4]triazolo[4,3-b]pyridazin-6-yl)piperidin-4-yl)phenoxy)ethoxy)acetamido)butanoyl)-4-hydroxy-N-(4-(4-methylthiazol-5-yl)benzyl)pyrrolidine-2-carboxamide]",− (<80% : −),− (<80% : −),− (>80%; −),− (>80%; −),− (>80%; −)
"O=C1CCC(N2Cc3cc(C4=CCN(C(=O)COCCCCOc5ccc(C6CCN(C7=Nn8c(nnc8C(F)(F)F)CC7)CC6)cc5)CC4)ccc3C2=O)C(=O)N1 (centres unmarked) [Compound 40, 3-(1-oxo-5-(1-(2-(4-(4-(1-(3-(trifluoromethyl)-7,8-dihydro-[1,2,4]triazolo[4,3-b]pyridazin-6-yl)piperidin-4-yl)phenoxy)butoxy)acetyl)-1,2,3,6-tetrahydropyridin-4-yl)isoindolin-2-yl)piperidine-2,6-dione]",++ (40-60% : ++),++ (40-60% : ++),+ (60-80%: +),+ (60-80%: +),+++ (<40%: +++)
"O=C1CCC(N2C(=O)c3cccc(NCC(=O)N4CCC(N5CCC(C#Cc6ccc(C(=O)Nc7ccc(C8CCN(C9=Nn%10c(nnc%10C(F)(F)F)CC9)CC8)cc7)nc6)CC5)CC4)c3C2=O)C(=O)N1 (centres unmarked) [Compound 51, 5-((1′-((2-(2,6-dioxopiperidin-3-yl)-1,3-dioxoisoindolin-4-yl)glycyl)-[1,4′-bipiperidin]-4-yl)ethynyl)-N-(4-(1-(3-(trifluoromethyl)-7,8-dihydro-[1,2,4]triazolo[4,3-b]pyridazin-6-yl)piperidin-4-yl)phenyl)picolinamide]",+++ (<40% : +++),+++ (<40% : +++),− (>80%; −),− (>80%; −),+ (60-80%: +)
"O=C1CCC(N2Cc3c(NC(=O)COCCCCOc4ccc(C5CCN(c6ccc7nnc(C(F)(F)F)n7n6)CC5)cc4)cccc3C2=O)C(=O)N1 (centres unmarked) [Compound 38, N-(2-(2,6-dioxopiperidin-3-yl)-1-oxoisoindolin-4-yl)-2-(4-(4-(1-(3-(trifluoromethyl)-[1,2,4]triazolo[4,3-b]pyridazin-6-yl)piperidin-4-yl)phenoxy)butoxy)acetamide]",+++ (<40% : +++),+++ (<40% : +++),++ (40-60%: ++),+++ (<40%: +++),+++ (<40%: +++)
"O=C1CCC(N2C(=O)c3cccc(N4CCN(C(=O)COCCCCOc5ccc(C6CCN(C7=Nn8c(nnc8C(F)(F)F)CC7)CC6)cc5)CC4)c3C2=O)C(=O)N1 (centres unmarked) [Compound 45, 2-(2,6-dioxopiperidin-3-yl)-4-(4-(2-(4-(4-(1-(3-(trifluoromethyl)-7,8-dihydro-[1,2,4]triazolo[4,3-b]pyridazin-6-yl)piperidin-4-yl)phenoxy)butoxy)acetyl)piperazin-1-yl)isoindoline-1,3-dione]",+++ (<40% : +++),+ (60-80% : +),− (>80%; −),++ (40-60%: ++),++ (40-60%: ++)
"O=C1CCC(N2Cc3cc(C4CCN(C(=O)COCCCCOc5ccc(C6CCN(C7=Nn8c(nnc8C(F)(F)F)CC7)CC6)cc5)CC4)ccc3C2=O)C(=O)N1 (centres unmarked) [Compound 41, 3-(1-oxo-5-(1-(2-(4-(4-(1-(3-(trifluoromethyl)-7,8-dihydro-[1,2,4]triazolo[4,3-b]pyridazin-6-yl)piperidin-4-yl)phenoxy)butoxy)acetyl)piperidin-4-yl)isoindolin-2-yl)piperidine-2,6-dione]",+++ (<40% : +++),++ (40-60% : ++),− (>80%; −),+ (60-80%: +),+++ (<40%: +++)
